From patent US9102656B2, “Use of rosuvastatin lactols as medicaments” (RedX Pharma Limited, priority 2009, dated 2015) come the findings set out here.

The structures appear in SMILES notation. Counter-ions that a name gives are not always drawn. Some results are limits rather than exact numbers.

For one test, the target named is HMG-CoA reductase (Homo sapiens (Human), UniProt P04035). Kind of test: HMG-CoA Reductase assay kit (spectrophotometric NADPH absorbance at 340 nm). To be noted: inhibitor concentrations varied from 0 nM to 50 nM; 37° C. The test is classed as biochemical. The method, then: All assays were carried out in a reaction buffer containing […] KxPO4 at pH 7.2, 1 mM EDTA, 500 mM KCl and 1 mg/ml BSA. The concentrations of NADPH and HMG-CoA were both 200 μM. […] Absorbance readings were then taken every 20 seconds for 600 seconds. […] After these were identified, assays were carried out varying their concentrations from 0 nM to 50 nM allowing IC50 values to be calculated.
Add a buffer to all samples. • b. […] Add the reconstituted NADPH to all samples. • d. Add Substrate Solution (HMG-CoA) to all samples. • e. […] Mix the samples thoroughly. 3. The kinetics programme was started immediately.

The subject of the next test is plasma triglycerides. Put plainly: Rat plasma triglyceride levels after 3 or 5 days BID oral treatment. To be noted: male SD rats, 25 mg/kg po BID for 3 or 5 days, plasma 16 hours after last dose. The test is classed as in vivo. The method, then:
The measurement of the change in rat plasma triglyceride levels is considered to be a fair test for determining HMG CoA reductase activity.
112 male SD rats (Harlan) were housed in groups of 6 under a 12 h light dark cycle (lights on 07.00 h) with free access to food (normal laboratory chow) and water. Animals between 148-183 g were allocated to treatment groups of 8 balanced by body weight and treatments were balanced across cages.
Four rosuvastatin analogues were made up in 10% PEG300/10% cremophor/80% methyl cellulose (0.5%) (vehicle 1) to make a 5 mg/mL solution. The rosuvastatin compounds used were:
Rosuvastatin Lactol n-propyl acetal (diastereomeric ratio 2/1) (BPL001); Rosuvastatin lactol n-propyl acetal nicotinoyl ester (diastereomeric ratio 2/1) (BPL002); Rosuvastatin lactol iso-propyl acetal benzyl ether (BPL003); and Rosuvastatin lactol methyl acetal nicotinoyl ester (diastereomeric ratio 2/1) (BPL004).
Rosuvastatin was formulated in 0.5% Tween in 0.5% methyl cellulose (vehicle 2) at 5 mg/kg as a suspension.
Rats were orally dosed with vehicle 1, one of the four rosuvastatin analogues in vehicle 1 (25 mg/kg), vehicle 2 or rosuvastatin in vehicle 2 (25 mg/kg po), BID for 3 or 5 days. […]
Data for each time-point were analysed by 1-way ANOVA and post-hoc Dunnett's test.

For orientation: IC50 means the concentration at which inhibition is half-maximal. Higher therefore signals lower potency.

Chain of HMG-CoA reductase (P04035 340-888): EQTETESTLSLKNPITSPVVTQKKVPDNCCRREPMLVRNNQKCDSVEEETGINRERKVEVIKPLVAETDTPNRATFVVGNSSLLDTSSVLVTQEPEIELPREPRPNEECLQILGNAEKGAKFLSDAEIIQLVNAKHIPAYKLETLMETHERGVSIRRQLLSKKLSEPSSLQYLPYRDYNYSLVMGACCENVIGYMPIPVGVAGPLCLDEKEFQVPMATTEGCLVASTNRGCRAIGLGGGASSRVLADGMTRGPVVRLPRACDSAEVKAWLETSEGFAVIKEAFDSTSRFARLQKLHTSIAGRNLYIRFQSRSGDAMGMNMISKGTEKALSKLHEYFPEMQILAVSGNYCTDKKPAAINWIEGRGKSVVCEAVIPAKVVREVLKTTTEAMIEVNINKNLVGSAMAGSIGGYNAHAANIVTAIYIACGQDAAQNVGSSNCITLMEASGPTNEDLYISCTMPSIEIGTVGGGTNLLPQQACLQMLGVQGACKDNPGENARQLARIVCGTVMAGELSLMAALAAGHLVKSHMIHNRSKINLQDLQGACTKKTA

As for `COC1C[C@H](OC(=O)c2cccnc2)C[C@@H](/C=C/c2c(-c3ccc(F)cc3)nc(N(C)S(C)(=O)=O)nc2C(C)C)O1` (stereo partly drawn), the IC50 on HMG-CoA reductase was below 1 nM. For `CC(C)c1nc(N(C)S(C)(=O)=O)nc(-c2ccc(F)cc2)c1C=CC(O)CC(O)CC(=O)O` (stereo not drawn) [rosuvastatin, 7-[4-(4-fluorophenyl)-6-(1-methylethyl)-2-(methyl-methylsulfonyl-amino)-pyrimidin-5-yl]-3,5-dihydroxy-hept-6-enoic acid], the “effect on plasma triglycerides” value with plasma triglycerides is given as “marked reduction in plasma triglycerides”. On HMG-CoA reductase, `CC(C)c1nc(N(C)S(C)(=O)=O)nc(-c2ccc(F)cc2)c1/C=C/[C@@H](O)C[C@@H](O)CC(=O)O` [Rosuvastatin calcium salt] showed an IC50 of 4 nM.
